One compound from patent US20240360194A1, “New Peptides as Potent and Selective GIP Receptor Agonists” (Sanofi, priority 2021, published 2024) can be followed below.

The target in series [1] is T1, human GIP receptor (hGIPR) (Homo sapiens, UniProt P48546).
T1 sequence (P48546 22-466): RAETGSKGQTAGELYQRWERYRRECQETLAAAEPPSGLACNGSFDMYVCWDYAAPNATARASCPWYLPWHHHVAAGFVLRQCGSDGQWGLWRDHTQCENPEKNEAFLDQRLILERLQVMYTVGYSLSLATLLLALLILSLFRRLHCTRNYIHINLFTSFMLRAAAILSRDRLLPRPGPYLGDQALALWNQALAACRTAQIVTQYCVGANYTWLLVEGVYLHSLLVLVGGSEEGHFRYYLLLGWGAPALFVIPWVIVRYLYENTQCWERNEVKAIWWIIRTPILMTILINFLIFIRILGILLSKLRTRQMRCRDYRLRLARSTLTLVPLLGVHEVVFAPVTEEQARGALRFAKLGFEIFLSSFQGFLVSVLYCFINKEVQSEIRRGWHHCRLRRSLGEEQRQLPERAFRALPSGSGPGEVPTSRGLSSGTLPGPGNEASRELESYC
Kind of series: In vitro cellular cAMP assay for GIP receptor efficacy (HEK-293 cell line over-expressing receptor). In kind it is cell-based. To be noted: EC50 hGIPR 0.1% BSA, HEK-293, 0.1% BSA.

A short description of series [2]: Pharmacokinetic evaluation in mice. Conditions: female, C57Bl/6, mouse, plasma, mice; for AUC(0-t): read-out: AUClast; for Cmax: read-out: Cmax; for half-life: read-out: T1/2 (converted). In kind it is in vivo, female C57Bl/6 mice. The procedure: Compounds were administered in a suitable buffer system, e.g. PBS buffer solution at pH7.4 or DPBS solution at concentrations of 0.05, 0.1, 0.5 or 1 mg/ml depending on dose, species and administration volume. Female C57Bl/6 mice were dosed 0.25 mg/kg, 0.5 mg/kg or 1 mg/kg intravenously (i.v.) or subcutaneously (s.c.). The mice were sacrificed, and blood samples were collected after 0.08, 0.25, 0.5, 1, 2, 4, 8, 24, 32, and 48 h post i.v. application and 0.25, 0.5, 1, 2, 4, 8, 24, 32, and 48 h post s.c. application, respectively. Plasma samples were analysed after protein precipitation via liquid chromatography mass spectrometry (LC/MS). PK parameters and half-life were calculated using Phoenix-WinNonlin 8.1 using a non-compartmental model and linear trapezoidal interpolation calculation. Pharmacokinetic profiles were determined as described in Methods.

The next series has as its system C57Bl/6 mice. Kind of series: Acute effects after s.c. treatment on blood glucose in an intraperitoneal glucose tolerance test (ipGTT). To be noted: for Blood glucose concentration AUC / Incremental blood glucose concentration AUCi: Example 13 study, mean ± SEM; for Blood glucose concentration AUC: vehicle 23.20; for Incremental blood glucose concentration AUCi: baseline corrected, vehicle 5.50. In kind it is in vivo, male C57Bl/6NCrl mice. The text has this:
Acute Effects after Subcutaneous (s.c.) Treatment on Blood Glucose in an Intraperitoneal (i.p.) Glucose Tolerance Test (ipGTT) in Healthy, Male C57Bl/6 Mice
Healthy, normoglycemic male C57Bl/6NCrl mice were ordered in an age of 9-10 weeks with an approximate body weight (BW) of 24-26 g at Charles River Laboratories Deutschland GmbH, 97633 Sulzfeld, Germany. Mice were shipped grouped housed (N=4 per cage), acclimatized for one week and remained grouped housed throughout the entire study. Mice were housed under vivarium conditions that included a 12 h light/dark cycle (light phase 06:00 AM-06:00 PM), mean room temperature of 22±2° C. and a relative mean humidity of 55±10%. All animals had free access to food (Ssniff R/M-H diet) and water prior to study start. At study start mice were between 10-11 weeks old.
The primary objective of the study was to investigate the compound-induced lowering of the blood glucose excursion and improvement of glucose tolerance in a mouse ipGTT setting and therefore the primary parameters included blood glucose, delta blood glucose (normalized to the time point just prior to the i.p. glucose challenge, t=0 h) and their respective calculated area under curve (AUC) values. The study was performed as an acute, single dosing study with 6 groups and the male animals were randomly divided to groups of 7-8 mice per group. Dose-dependent pharmacodynamic blood glucose lowering efficacy of the GIPR agonist was analyzed with s.c. injections 6 h before the i.p. glucose load in the dose range from 3 up to 100 nmol/kg and compared to the vehicle group as well as the semaglutide positive control at a dose of 10 nmol/kg.
In more detail, mice were fed overnight and on the following morning brought to the lab with food removed but ad libitum access to water. Blood samplings (5 μl) were performed at: −6.5, −0.5, 0, 0.17, 0.5, 1, 1.5, 2 and 3 h before and after the glucose bolus of 1 g glucose per kg BW i.p. given at time point t=0 h. On time point t=0.17 h an additional K-EDTA plasma sample from 60-80 μl blood was taken for plasma insulin analysis. Blood was withdrawn from the tip of the tail. The GIPR agonist and semaglutide were dissolved in 10 mM phosphate buffer pH 7.4 with 2.3% glycerol and 0.01% polysorbat 20 (vehicle) and s.c. treatment was performed −6 h before the glucose load (t=0 h) using an injection volume of 5 ml/kg. The injection solutions were freshly prepared prior to the experiment using sterile filtered vehicle solution. Blood glucose was determined enzymatically (Gluco-quant® Glucose/HK kit on Roche/Hitachi 912). Plasma insulin was determined using a mouse/rat insulin sandwich immunoassay kit from Meso Scale Discovery.
All data were collected using Microsoft Excel. None of the data were collected online. The results are expressed as means±standard error of the mean (SEM). As primary study parameters, blood glucose, baseline (time point t=0 h) subtracted delta blood glucose and their respective calculated area under curve (AUC) values were determined.
The statistical analysis of the ipGTT blood glucose excursion data response following subcutaneous compound or vehicle treatment was performed on the calculated AUC values of blood glucose raw data as well as the calculated AUC values for baseline subtracted delta blood glucose data. In a first step the Levene's test was used to test for equality of variances between groups. […] Where Levene's test was not significant (p>0.05) ANOVA was conducted without prior rank transformation. In a second step a One-way ANOVA analysis for factor treatment followed by Dunnett's multiple comparisons test vs. vehicle group was used to test for statistical differences. All analyses were performed using SAS (version 9.4) under Linux via the interface software EverSt@t V6.1.
Male C57Bl/6NCrl mice were fed overnight and on the following morning brought to the lab with food removed but adlibitum access to water. […]

Molecules are shown by their SMILES. Like-named read-outs stand apart in the source and are kept apart here.

As for `CC[C@H](C)[C@H](NC(=O)[C@H](CCCNC(=N)N)NC(=O)[C@H](CC(=O)O)NC(=O)[C@H](CCCCNC(=O)COCCOCCNC(=O)COCCOCCNC(=O)CC[C@H](NC(=O)CCCCCCCCCCCCCCCCC(=O)O)C(=O)O)NC(=O)C(C)(C)NC(=O)[C@@H](NC(=O)[C@H](CO)NC(=O)[C@H](CC(C)C)NC(=O)[C@H](CC(=O)O)NC(=O)[C@H](CO)NC(=O)[C@@H](NC(=O)[C@H](Cc1ccccc1)NC(=O)[C@@H](NC(=O)CNC(=O)[C@H](CCC(=O)O)NC(=O)C(C)(C)NC(=O)[C@@H](N)Cc1ccc(O)cc1)[C@@H](C)O)[C@@H](C)CC)[C@@H](C)CC)C(=O)N[C@@H](Cc1c[nH]cn1)C(=O)N[C@@H](CCC(N)=O)C(=O)NC(C)(C)C(=O)N[C@@H](CCC(=O)O)C(=O)N[C@@H](Cc1ccccc1)C(=O)N[C@H](C(=O)N[C@@H](CCC(=O)O)C(=O)N[C@@H](Cc1c[nH]c2ccccc12)C(=O)N[C@@H](CC(C)C)C(=O)N[C@@H](CC(C)C)C(=O)N[C@@H](C)C(=O)N[C@@H](CCC(N)=O)C(=O)N[C@@H](CCCNC(=N)N)C(=O)NCC(N)=O)[C@@H](C)CC` [SEQ ID NO: 6, H2N-Y-Aib-E-G-T-F-I-S-D-L-S-I-Aib-K[{AEEA}2-gGlu-C18OH]-D-R-I-H-Q-Aib-E-F-I-E-W-L-L-A-Q-R-G-NH2], the EC50 (in general, the concentration at which the effect is half-maximal) in series [1] came to 5.93 pM. The AUC(0-t) in series [2] (iv, 0.25 mg/kg i.v.) was found to be 20.8 µg·h/mL; in series [2] (sc, 0.5 mg/kg s.c.), 37.5 µg·h/mL. In addition, the clearance in series [2] (iv, 0.25 mg/kg i.v., read-out: Cl (converted)) was 0.0119 L/h/kg. The Cmax (as a rule, the maximum level reached in the sampled fluid or tissue) amounted to 3.47 µg/mL in series [2] (iv, 0.25 mg/kg i.v.) and 2.39 µg/mL in series [2] (sc, 0.5 mg/kg s.c.). The half-life in series [2] (iv, 0.25 mg/kg i.v.) was 7.9 h; in series [2] (sc, 0.5 mg/kg s.c.), 8.21 h. The bioavailability in series [2] (sc, 0.5 mg/kg s.c., read-out: F) came to 91%. For the same compound, the “Blood glucose concentration AUC” value is “+21.51 ± 0.580 mmol/L* 0-2 h” with C57Bl/6 mice (3 nmol/kg s.c. 6 h before i.p. glucose), “+19.37 ± 0.309 mmol/L* 0-2 h” in the series on C57Bl/6 mice (10 nmol/kg s.c. 6 h before i.p. glucose), “+17.22 ± 0.453 mmol/L* 0-2 h” in the series with C57Bl/6 mice (30 nmol/kg s.c. 6 h before i.p. glucose) and “+15.35 ± 0.308 mmol/L* 0-2 h” with C57Bl/6 mice (100 nmol/kg s.c. 6 h before i.p. glucose). For the same compound, the “Incremental blood glucose concentration AUCi” value in the series with C57Bl/6 mice (3 nmol/kg s.c.) is listed as “+3.85 ± 0.438 mmol/L* 0-2 h”; in the series on C57Bl/6 mice (10 nmol/kg s.c.), “+3.84 ± 0.240 mmol/L* 0-2 h”; in the series with C57Bl/6 mice (30 nmol/kg s.c.), “+2.87 ± 0.382 mmol/L* 0-2 h”; with C57Bl/6 mice (100 nmol/kg s.c.), “+1.21 ± 0.361 mmol/L* 0-2 h”. Further, the “minimal effective dose for improvement of i.p. glucose tolerance” value with C57Bl/6 mice (single s.c. dose, C57Bl/6NCrl mice, vs. vehicle) was 10 to 30 nmol/kg.
